Read-outs that look alike come from different tables or passages of the source.
What was measured:
[1] = system: patients with solid tumors or lymphoma
[2] = Pharmacokinetic analysis of irinotecan and metabolites in patient plasma; assay type: in vivo, human; conditions: for AUC: human, plasma, 350 mg/m2, Irinotecan AUC, mean; for SN-38 AUC, mean / SN-38^b AUC, mean: after irinotecan
Experimental: Venous blood for pharmacokinetic analysis was collected on day 1 of cycle 1 for pharmacokinetic analysis. Samples of 7 ml were collected into green top sodium heparinized Vacutainer® tubes prior to the infusion; 30, 60, and 90 minutes during the infusion; and 10, 20, 30, 45, and 60 minutes and 1.5, 2, 4, 6, 12, and 24 hours after the infusion. Samples were centrifuged (2500 rpm, 20 min, 4° C.) and the plasma was immediately separated, transferred as two aliquots into storage tubes, frozen at −80° C. until analysis.
The glucuronidation ratio was expressed as the ratio of the SN-38G AUC over SN-38 AUC.

solid tumors or lymphoma = assay: Objective tumor response in patients given irinotecan; assay type: in vivo, human
patients = conditions: cited from earlier work
UGT1A1 = biological target: T1, UGT1A1 (Homo sapiens, UniProt P22309); assay: SN-38 glucuronidation assay in human liver microsomes; assay type: in vitro ADME; conditions: for SN-38 glucuronidation rate: Caucasians
T1 construct: microsomes were isolated following differential centrifugation methods; tissue Liver Tissue Procurement and Distribution System; Liver Core Bank Facility (St. Jude Children's Research Hospital); host or cells: normal human liver microsomes (n=83 donors)
T1 sequence (P22309 26-533): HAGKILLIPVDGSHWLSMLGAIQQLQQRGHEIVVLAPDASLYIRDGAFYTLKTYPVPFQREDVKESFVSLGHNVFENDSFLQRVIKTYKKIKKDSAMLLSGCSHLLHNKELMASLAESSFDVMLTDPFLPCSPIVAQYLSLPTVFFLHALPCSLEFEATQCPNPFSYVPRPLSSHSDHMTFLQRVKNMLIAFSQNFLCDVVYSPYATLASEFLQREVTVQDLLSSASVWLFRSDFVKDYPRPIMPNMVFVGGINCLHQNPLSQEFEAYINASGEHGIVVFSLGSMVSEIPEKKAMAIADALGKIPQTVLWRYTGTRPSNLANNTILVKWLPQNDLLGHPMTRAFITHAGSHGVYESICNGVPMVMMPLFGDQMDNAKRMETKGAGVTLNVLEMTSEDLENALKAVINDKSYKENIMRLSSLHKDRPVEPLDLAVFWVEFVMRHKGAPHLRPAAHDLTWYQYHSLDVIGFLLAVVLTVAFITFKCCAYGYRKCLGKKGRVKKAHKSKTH
Description: Normal human livers (n=83) were mainly obtained from Liver Tissue Procurement and Distribution System (National Institutes of Diabetes and Digestive and Kidney Diseases, Minneapolis, Minn.). DNA was isolated by using Qiagen RNA/DNA Maxi Kit (Qiagen Inc., Valencia, Calif., USA), and microsomes were isolated following differential centrifugation methods (Purba et al., 1987). DNA and microsomes were provided by the Liver Core Bank Facility (St. Jude Children's Research Hospital) of the Pharmacogenetics of Anticancer Agents Research (PAAR) Group. In order to identify livers in which enzyme degradation occurred, liver samples consistently comprised in the 10th percentile of UGT1A1, UGT1A9 and UGT2B7 activities were sought. UGT1A9 and UGT2B7 activities were measured using specific probes (data not shown) (Ramirez et al., 2002 and Innocenti, et al., 2001). Out of eight samples within the 10th percentile of UGT1A1, only one sample was comprised within the 10th percentile of activities of the other two enzyme activities.
Samples were phenotyped by using SN-38 as a substrate for UGT1A1. The incubation mixture consisted of 5 μmol SN-38, 10 mmol MgCl2, 1 mg/ml microsomes, 0.025 mol Tris-HCl (pH 7.4) and 5 mmol UDP-GA. Samples were incubated for 30 min at 37° C. The reaction was stopped by the addition of methanol. These conditions were selected after previous optimization of the enzyme reaction (Iyer et al., 1998). Camptothecin (75 ng) was used as an internal standard. SN-38 glucuronidation was measured by HPLC (Hitachi Instruments Inc., San Jose, Calif., USA) with fluorescence detection (λ excitation=355 nm, λ emission=515 nm). A μBondapak™ C18 column (3.9×300 mm, 10 μm; Waters Corp., Milford, Mass., USA) and μBondapak™ C18 guardpak (Waters Corp.) were used. A mobile phase of […] acetonitrile/tetra-hydrofuran/0.9 mmol sodium heptanedfonic acid in 50 mmol potassium dihydrogen phosphate (pH 4) was used during the first 7 min of the run. From 7.1-25 min, the eluent consisted of 30/70 acetonitrile/5 mmol sodium heptanesulfonic acid in 50 mmol potassium dihydrogen phosphate (pH 4). The flow rate was 0.9 ml/min. […] The intra-assay variability was determined by performing 10 incubations on the same day using a pool of human liver microsomes. The inter-assay variability was evaluated by incubating a pool of human liver microsomes in triplicate on three different days. […]
UGT1A1 activity was phenotyped by measuring SN-38 glucuronidation rates of each liver as the mean±SD of a single experiment performed in triplicate. […] Moreover, trend analysis and pairwise comparisons were performed in genotypes expressed as the sum of TA repeats in both chromosomes (i.e. in samples with […] (5/6, 6/6, 5/7), 13 (6/7) and […] (7/7, 6/8, 7/8) TA repeat genotypes). […]

UGT1A isoforms = assay: In vitro TAS-103 and SN-38 glucuronidation activity in species deficient in UGT1A isoforms; assay type: in vitro ADME; conditions: Gunn rats and CN-1 patients deficient in UGT1A isoforms
Description: On the other hand, while isoforms of the UGT1 family are the predominate isoforms involved in TAS-103 glucuronidation, the isoform of the UGT2 family may also participate in TAS-103 glucuronidation. Failure to glucuronidate SN-38 and TAS-103 in these instances may result specifically from the genetic defect in UGT1 gene family.

[3] = TA indel genotype 6/6, 30 patients
[4] = TA indel genotype 6/7, 25 patients
[5] = TA indel genotype 7/7, 6 patients

CCc1c2c(nc3ccc(OC(=O)N4CCC(N5CCCCC5)CC4)cc13)-c1cc3c(c(=O)n1C2)COC(=O)[C@]3(O)CC [irinotecan, 7-ethyl-10-[4-(1-piperidino)-1-piperidino]carbonyloxycamptothecin]
frequency of grade 4 neutropenia ([1]; TA indel genotype 6/6 (0/30), cycle 1): 0%
frequency of grade 4 neutropenia ([1]; TA indel genotype 6/7 (3/24), cycle 1): 12.5%
frequency of grade 4 neutropenia ([1]; TA indel genotype 7/7 (3/6), cycle 1): 50%
frequency of grade 4 neutropenia ([1]; all assessable patients, cycle 1, 350 mg/m2 i.v. every 3 weeks): 9.5%
frequency of grade 3 diarrhea ([1]; all patients, cycle 1): 5%
grade 4 diarrhea ([1]; all patients, cycle 1): no instances
toxic death ([1]; neutropenia-related sepsis, 7/7 genotype, died on day 11): One toxic death
patients with grade 4 neutropenia ([1]; out of the 7 patients with total bilirubin higher than 0.7 mg/dl): 4
cases of grade 4 neutropenia ([1]; patients with pretreatment total bilirubin less than 0.6 mg/dl): No cases
AUC ([2]; intravenous, TA indel genotype 6/7, 25 patients): 26100 ng·h/mL
AUC ([2]; intravenous, TA indel genotype 7/7, 6 patients): 25400 ng·h/mL
AUC ([2]; iv, TA indel genotype 6/6, 30 patients, 350 mg/m2 90 minute i.v. infusion): 24400 ng·h/mL
objective responses (solid tumors or lymphoma; 60 patients assessable for response): three objective responses
partial response, patients (solid tumors or lymphoma; colorectal and head and neck cancer, 6/7 genotype): Two patients
complete response, patients (solid tumors or lymphoma; colorectal cancer, 6/6 genotype): One colorectal cancer patient
patients experiencing grade 3-4 neutropenia (patients; both weekly and three-weekly regimens): 30-40%
grade 3-4 diarrhea, share of patients (patients; early single agent trials (Negoro 1991; Rothenberg 1993)): about one third
frequency of grade 3-4 diarrhea (patients; three-weekly regimen (Fuchs et al., 2003)): 19%
mortality rate (patients; three-weekly single agent regimen (Fuchs et al., 2003)): 1.6%
frequency of grade 3-4 diarrhea (patients; weekly schedule (Fuchs et al., 2003)): 36%
mortality rate (patients; weekly single agent regimen (Fuchs et al., 2003)): 5.3%

CCc1c2c(nc3ccc(O)cc13)-c1cc3c(c(=O)n1C2)COC(=O)[C@]3(O)CC [SN-38, 7-ethyl-10-hydroxycamptothecin]
coefficient of variation of SN-38 glucuronidation (UGT1A1; 83 human liver microsomes): 46%
range in SN-38 glucuronidation (UGT1A1; 83 human liver microsomes): 10 fold
SN-38 glucuronidation rate (UGT1A1; I/I haplotype pairs): 2.53±0.82 SN-38G/IS
SN-38 glucuronidation rate (UGT1A1; I/II haplotype pairs): 2.06±0.74 SN-38G/IS
in vitro glucuronidation compared to healthy liver donors (UGT1A isoforms): no in vitro glucuronidation
Glucuronidation Ratio (SN-38G AUC/SN-38 AUC), mean [2, 3]: 6.52
SN-38 AUC, mean [2, 3]: 335.9 ng·h/mL
SN-38^b AUC, mean [2, 3]: 1954.2 ng·h/mL
Glucuronidation Ratio (SN-38G AUC/SN-38 AUC), mean [2, 4]: 5.55
SN-38 AUC, mean [2, 4]: 458.4 ng·h/mL
SN-38^b AUC, mean [2, 4]: 1887.9 ng·h/mL
Glucuronidation Ratio (SN-38G AUC/SN-38 AUC), mean [2, 5]: 3.59
SN-38 AUC, mean [2, 5]: 542.0 ng·h/mL
SN-38^b AUC, mean [2, 5]: 1819.1 ng·h/mL

CN(C)CCNc1nc2cc(O)ccc2c2c1C(=O)c1ccccc1-2.Cl.Cl [TAS-103, 6-[[2-(dimethylamino)ethyl]amino]-3-hydroxy-7H-indeno[2,1-c]quinoline-7-one dihydrochloride]
lower glucuronidation rate in vitro compared to healthy liver donors (UGT1A isoforms): ~80%

Reference: US20040203034A1 (The University of Chicago, priority 2003, published 2004)
